Reference: patent publication US6274715A, “Tricyclic erythromycin derivatives” (priority 1997, dated 2001)
≈ marks a conversion by molar mass, not a printed value.

What was measured:
Assay type in all cases: cell-based
[1] = test system: PSEUDOMONAS AERUGINOSA K799/WT; assay: In vitro antibacterial activity, MIC, BHI agar dilution; settings: P. aeruginosa K799/WT, unit assumed
[2] = test system: KLEBSIELLA PNEUMONIAE ATCC 8045; assay: as above; settings: K. pneumoniae ATCC 8045, unit assumed
[3] = test system: STAPHYLOCOCCUS AUREUS NCTC10649M; assay: as above; settings: S. aureus NCTC10649M, unit assumed
[4] = test system: STAPHYLOCOCCUS AUREUS A-5278; assay: as above; settings: S. aureus A-5278, unit assumed
[5] = test system: STREPTOCOCCUS PYOGENES PIU 2548; assay: as above; settings: S. pyogenes PIU 2548, unit assumed
[6] = test system: ENTEROBACTER AEROGENES ATCC 13048; assay: as above; settings: E. aerogenes ATCC 13048, unit assumed
[7] = test system: ESCHERICHIA COLI H560; assay: as above; settings: E. coli H560, unit assumed
[8] = test system: STAPHYLOCOCCUS AUREUS CMX 642A; assay: as above; settings: S. aureus CMX 642A, unit assumed
[9] = test system: PSEUDOMONAS AERUGINOSA DPHD-2862; assay: as above; settings: P. aeruginosa DPHD-2862, unit assumed
[10] = test system: CANDIDA ALBICANS CCH 442; assay: as above; settings: C. albicans CCH 442, unit assumed
[11] = test system: ESCHERICHIA COLI JUHL; settings: E. coli JUHL; BHI agar; unit assumed
[12] = test system: PSEUDOMONAS CEPACIA 296I; assay: In vitro antibacterial activity, MIC, BHI agar dilution; settings: P. cepacia 296I, unit assumed
[13] = test system: STAPHYLOCOCCUS EPIDERMIDIS 3519; settings: S. epidermidis 3519; BHI agar; unit assumed
[14] = test system: STREPTOCOCCUS PYOGENES 930; assay: In vitro antibacterial activity, MIC, BHI agar dilution; settings: S. pyogenes 930, unit assumed
[15] = test system: MYCOBACTERIUM SMEGMATIS ATCC 114; assay: as above; settings: M. smegmatis ATCC 114, unit assumed
[16] = test system: ESCHERICHIA COLI DC-2; assay: as above; settings: E. coli DC-2, unit assumed
[17] = test system: ACINETOBACTER CALCOACETICUS CMX 669; assay: as above; settings: A. calcoaceticus CMX 669, unit assumed
[18] = test system: PSEUDOMONAS AERUGINOSA DPHD-5263; assay: as above; settings: P. aeruginosa DPHD-5263, unit assumed
[19] = test system: PROVIDENCIA STUARTII CMX 640; settings: P. stuartii CMX 640; BHI agar; unit assumed
[20] = test system: STAPHYLOCOCCUS AUREUS CMX 553; assay: In vitro antibacterial activity, MIC, BHI agar dilution; settings: S. aureus CMX 553, unit assumed
[21] = test system: PSEUDOMONAS AERUGINOSA K799/61; assay: as above; settings: P. aeruginosa K799/61, unit assumed
[22] = test system: STAPHYLOCOCCUS AUREUS A5177; assay: as above; settings: S. aureus A5177, unit assumed
[23] = test system: STREPTOCOCCUS BOVIS A-5169; assay: as above; settings: S. bovis A-5169, unit assumed
[24] = test system: M[…] ATCC 4698; assay: as above; settings: M. luteus ATCC 4698, unit assumed
Outline: (§1)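 Agar dilution in BHI: plates inoculated with 1:100 dilutions of organisms (1:10 for Micrococcus and Streptococcus), incubated 20-24 h at 35-37° C, then inspected for the lowest inhibitory concentration against a drug-free growth control.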

[25] = test system: M[…] ATCC 9341; assay: as above; settings: M. luteus ATCC 9341, unit assumed
Outline: as §1

[26] = test system: EN[…] ATCC 8043; assay: as above; settings: E. faecium ATCC 8043, unit assumed
Outline: as §1

[27] = test system: STR[…] 508; assay: as above; settings: S. agalactiae CMX 508, unit assumed
Outline: as §1

[28] = test system: ESCHERICHIA COLI KNK 437; settings: E. coli KNK 437; BHI agar; unit assumed
[29] = test system: PSEUDOMONAS AERUGINOSA 5007; assay: In vitro antibacterial activity, MIC, BHI agar dilution; settings: P. aeruginosa 5007, unit assumed
[30] = test system: ESCHERICHIA COLI SS; assay: as above; settings: E. coli SS, unit assumed
[31] = test system: PSEUDOMONAS AERUGINOSA BMH10; assay: as above; settings: P. aeruginosa BMH10, unit assumed
[32] = test system: STAPHYLOCOCCUS AUREUS ATCC 6538P; assay: as above; settings: S. aureus ATCC 6538P, 35-37° C., 20 to 24 hours, unit assumed
[33] = test system: STAPHYLOCOCCUS AUREUS 1775; assay: as above; settings: S. aureus 1775, unit assumed
[34] = test system: STREPTOCOCCUS PYOGENES EES61; assay: as above; settings: S. pyogenes EES61, unit assumed

SMILES	MIC [1]	MIC [2]	MIC [3]	MIC [4]	MIC [5]	MIC [6]	MIC [7]	MIC [8]	MIC [9]	MIC [10]	MIC [11]	MIC [12]	MIC [13]	MIC [14]	MIC [15]	MIC [16]	MIC [17]	MIC [18]	MIC [19]	MIC [20]	other results
CC[C@H]1OC(=O)[C@H](C)C(=O)[C@H](C)[C@@H](O[C@@H]2O[C@H](C)C[C@H](N(C)C)[C@H]2O)[C@](C)(OC)C[C@@H](C)C2=N[C@@H]3CCC[C@@H]3N3C(=O)O[C@@]1(C)[C@H]3[C@H]2C [Example 17]	> 100 µg/mL	> 100 µg/mL	0.78 µg/mL (≈ 1.15 µM)	> 100 µg/mL	0.39 µg/mL (≈ 0.575 µM)	> 100 µg/mL	100 µg/mL (≈ 148 µM)	0.78 µg/mL (≈ 1.15 µM)	> 100 µg/mL	> 100 µg/mL	> 100 µg/mL	> 100 µg/mL	0.78 µg/mL (≈ 1.15 µM)	> 100 µg/mL	12.5 µg/mL (≈ 18.4 µM)	> 100 µg/mL	100 µg/mL (≈ 148 µM)	> 100 µg/mL	> 100 µg/mL	0.78 µg/mL (≈ 1.15 µM)	MIC [21]: 12.5 µg/mL (≈ 18.4 µM); MIC [22]: 0.78 µg/mL (≈ 1.15 µM); MIC [23]: 0.02 µg/mL (≈ 0.0295 µM); MIC [24]: 0.78 µg/mL (≈ 1.15 µM); MIC [25]: 0.1 µg/mL (≈ 0.148 µM); MIC [26]: 0.2 µg/mL (≈ 0.295 µM); MIC [27]: 0.05 µg/mL (≈ 0.0738 µM); MIC [28]: > 100 µg/mL; MIC [29]: > 100 µg/mL; MIC [30]: 0.78 µg/mL (≈ 1.15 µM); MIC [31]: > 100 µg/mL; MIC [32]: 0.78 µg/mL (≈ 1.15 µM); MIC [33]: > 100 µg/mL; MIC [34]: 0.05 µg/mL (≈ 0.0738 µM)
CC[C@H]1OC(=O)[C@H](C)C(=O)[C@H](C)[C@@H](O[C@@H]2O[C@H](C)C[C@H](N(C)C)[C@H]2O)[C@](C)(OC)C[C@@H](C)C2=N[C@@H]3CN(Cc4ccc(Cl)cc4)C[C@@H]3N3C(=O)O[C@@]1(C)[C@H]3[C@H]2C [Example 24]	> 100 µg/mL	> 100 µg/mL	0.78 µg/mL (≈ 0.971 µM)	> 100 µg/mL	0.78 µg/mL (≈ 0.971 µM)	> 100 µg/mL	> 100 µg/mL	0.78 µg/mL (≈ 0.971 µM)	> 100 µg/mL	> 100 µg/mL	> 100 µg/mL	> 100 µg/mL	0.78 µg/mL (≈ 0.971 µM)	100 µg/mL (≈ 124 µM)	1.56 µg/mL (≈ 1.94 µM)	> 100 µg/mL	> 100 µg/mL	> 100 µg/mL	> 100 µg/mL	0.78 µg/mL (≈ 0.971 µM)	MIC [21]: 6.2 µg/mL (≈ 7.72 µM); MIC [22]: 0.78 µg/mL (≈ 0.971 µM); MIC [23]: 0.05 µg/mL (≈ 0.0622 µM); MIC [24]: 0.78 µg/mL (≈ 0.971 µM); MIC [25]: 0.2 µg/mL (≈ 0.249 µM); MIC [26]: 0.2 µg/mL (≈ 0.249 µM); MIC [27]: 0.2 µg/mL (≈ 0.249 µM); MIC [28]: > 100 µg/mL; MIC [29]: > 100 µg/mL; MIC [30]: 6.2 µg/mL (≈ 7.72 µM); MIC [31]: > 100 µg/mL; MIC [32]: 0.78 µg/mL (≈ 0.971 µM); MIC [33]: > 100 µg/mL; MIC [34]: 0.05 µg/mL (≈ 0.0622 µM)
CC[C@H]1OC(=O)[C@H](C)C(=O)[C@H](C)[C@@H](O[C@@H]2O[C@H](C)C[C@H](N(C)C)[C@H]2O)[C@](C)(OC)C[C@@H](C)C2=N[C@@H]3CN(Cc4ccncc4)C[C@@H]3N3C(=O)O[C@@]1(C)[C@H]3[C@H]2C [Example 25]	100 µg/mL (≈ 130 µM)	> 100 µg/mL	0.39 µg/mL (≈ 0.507 µM)	> 100 µg/mL	0.78 µg/mL (≈ 1.01 µM)	> 100 µg/mL	100 µg/mL (≈ 130 µM)	0.78 µg/mL (≈ 1.01 µM)	> 100 µg/mL	> 100 µg/mL	> 100 µg/mL	> 100 µg/mL	0.78 µg/mL (≈ 1.01 µM)	> 100 µg/mL	3.1 µg/mL (≈ 4.03 µM)	> 100 µg/mL	100 µg/mL (≈ 130 µM)	> 100 µg/mL	> 100 µg/mL	0.78 µg/mL (≈ 1.01 µM)	MIC [21]: 0.78 µg/mL (≈ 1.01 µM); MIC [22]: 0.78 µg/mL (≈ 1.01 µM); MIC [23]: 0.1 µg/mL (≈ 0.13 µM); MIC [24]: 0.39 µg/mL (≈ 0.507 µM); MIC [25]: 0.1 µg/mL (≈ 0.13 µM); MIC [26]: 0.1 µg/mL (≈ 0.13 µM); MIC [27]: 0.1 µg/mL (≈ 0.13 µM); MIC [28]: > 100 µg/mL; MIC [29]: > 100 µg/mL; MIC [30]: 0.78 µg/mL (≈ 1.01 µM); MIC [31]: > 100 µg/mL; MIC [32]: 0.78 µg/mL (≈ 1.01 µM); MIC [33]: > 100 µg/mL; MIC [34]: 0.05 µg/mL (≈ 0.0649 µM)
CC[C@H]1OC(=O)[C@H](C)C(=O)[C@H](C)[C@@H](O[C@@H]2O[C@H](C)C[C@H](N(C)C)[C@H]2O)[C@](C)(OC)C[C@@H](C)C2=NC3CN(CCOc4ccccc4)CC3N3C(=O)O[C@@]1(C)[C@H]3[C@H]2C (stereo partly drawn) [Example 128]	> 100 µg/mL	> 100 µg/mL	0.39 µg/mL (≈ 0.488 µM)	> 100 µg/mL	0.78 µg/mL (≈ 0.976 µM)	> 100 µg/mL	> 100 µg/mL	0.39 µg/mL (≈ 0.488 µM)	> 100 µg/mL	> 100 µg/mL	100 µg/mL (≈ 125 µM)	> 100 µg/mL	0.39 µg/mL (≈ 0.488 µM)	> 100 µg/mL	1.56 µg/mL (≈ 1.95 µM)	> 100 µg/mL	100 µg/mL (≈ 125 µM)	> 100 µg/mL	> 100 µg/mL	0.39 µg/mL (≈ 0.488 µM)	MIC [21]: 6.2 µg/mL (≈ 7.76 µM); MIC [22]: 0.39 µg/mL (≈ 0.488 µM); MIC [23]: ≤ 0.005 µg/mL; MIC [24]: 0.39 µg/mL (≈ 0.488 µM); MIC [25]: 0.05 µg/mL (≈ 0.0626 µM); MIC [26]: 0.1 µg/mL (≈ 0.125 µM); MIC [28]: > 100 µg/mL; MIC [29]: > 100 µg/mL; MIC [30]: 1.56 µg/mL (≈ 1.95 µM); MIC [31]: > 100 µg/mL; MIC [32]: 0.39 µg/mL (≈ 0.488 µM); MIC [33]: > 100 µg/mL; MIC [34]: ≤ 0.005 µg/mL
